Assay results as given in the OligoGym collection.
HELM strings list units from the 5' end as sugar, base in round brackets, then linkage (d deoxyribose, r ribose, m 2'-O-methyl, p phosphodiester). Strings are as the collection lists them, not checked against the first reports. ss, as = sense and antisense strand; [lna] = locked nucleic acid (LNA); [una] = unlocked nucleic acid; [hna] = hexitol nucleic acid; [s4r] = 4'-thioribose; [fl2r] = 2'-fluoro

Conditions: siRNA
Also: test system not given here.

Substance	target mRNA knockdown
RNA1{r(G)p.r(A)p.r(G)p.r(G)p.r(A)p.m(U)p.r(G)p.r(G)p.r(A)p.r(U)p.r(U)p.r(C)p.r(G)p.m(A)p.r(C)p.r(U)p.m(U)p.r(A)p.r(G)p.r(T)p.r(T)}|RNA2{r(C)p.m(U)p.r(A)p.r(A)p.m(G)p.r(U)p.r(C)p.r(G)p.r(A)p.r(A)p.r(U)p.r(C)p.m(C)p.r(A)p.r(U)p.r(C)p.r(C)p.r(U)p.r(C)p.r(T)p.r(T)}$$$RNA1{StrandType:ss}|RNA2{StrandType:as}$	91%
RNA1{r(G)p.r(U)p.r(A)p.r(U)p.r(G)p.r(A)p.r(C)p.r(C)p.r(G)p.r(A)p.r(C)p.r(U)p.r(A)p.r(C)p.r(G)p.r(C)p.r(G)p.r(U)p.r(A)p.r(T)p.r(T)}|RNA2{r(U)p.r(U)p.r(C)p.r(A)p.r(G)p.r(U)p.r(G)p.r(U)p.r(G)p.r(A)p.r(U)p.r(G)p.[una](A)p.r(C)p.r(A)p.r(C)p.r(U)p.r(U)p.r(G)p.r(T)p.r(T)}$$$RNA1{StrandType:ss}|RNA2{StrandType:as}$	74%
RNA1{m(A)p.r(C)p.m(G)p.r(U)p.m(C)p.r(A)p.m(C)p.r(C)p.m(G)p.r(A)p.m(G)p.r(G)p.m(A)p.r(G)p.m(A)p.r(A)p.m(G)p.r(U)p.m(A)p.r(T)p.r(T)}|RNA2{r(U)p.r(A)p.r(C)p.r(U)p.r(U)p.r(C)p.r(U)p.r(C)p.r(C)p.r(U)p.r(C)p.r(G)p.r(G)p.r(U)p.r(G)p.r(A)p.r(C)p.r(G)p.r(U)p.r(T)p.r(T)}$$$RNA1{StrandType:ss}|RNA2{StrandType:as}$	36%
RNA1{m(A)p.m(A)p.m(G)p.m(G)p.m(A)p.m(G)p.m(A)p.m(U)p.m(C)p.m(A)p.m(A)p.m(C)p.m(A)p.m(U)p.m(U)p.m(U)p.m(U)p.m(C)p.m(A)p.r(T)p.r(T)}|RNA2{[fl2r](U)p.r(G)p.r(A)p.r(A)p.r(A)p.r(A)p.[fl2r](U)p.r(G)p.r(U)p.r(U)p.r(G)p.r(A)p.[fl2r](U)p.[fl2r](C)p.[fl2r](U)p.[fl2r](C)p.[fl2r](C)p.[fl2r](U)p.[fl2r](U)p.r(T)p.r(T)}$$$RNA1{StrandType:ss}|RNA2{StrandType:as}$	71%
RNA1{r(G)p.r(G)p.r(A)p.r(C)p.r(A)p.r(U)p.r(U)p.r(C)p.r(A)p.r(G)p.r(A)p.r(A)p.r(C)p.r(A)p.r(A)p.r(G)p.r(A)p.r(A)p.r(A)p.[una](U)p.[una](U)}|RNA2{r(U)p.[una](U)p.r(U)p.r(C)p.r(U)p.r(U)p.r(G)p.r(U)p.r(U)p.r(C)p.r(U)p.r(G)p.r(A)p.r(A)p.r(U)p.r(G)p.r(U)p.r(C)p.r(C)p.[una](U)p.[una](U)}$$$RNA1{StrandType:ss}|RNA2{StrandType:as}$	36%
RNA1{r(A)p.r(U)p.m(A)p.r(C)p.r(U)p.r(U)p.r(G)p.r(G)p.r(C)p.r(G)p.r(G)p.r(G)p.r(C)p.r(U)p.r(C)p.r(U)p.r(U)p.r(U)p.r(C)p.r(T)p.r(T)}|RNA2{r(G)p.r(A)p.r(A)p.r(A)p.r(G)p.r(A)p.r(G)p.r(C)p.r(C)p.r(C)p.r(G)p.r(C)p.m(C)p.r(A)p.r(A)p.r(G)p.r(U)p.r(A)p.r(U)p.r(T)p.r(T)}$$$RNA1{StrandType:ss}|RNA2{StrandType:as}$	72%
RNA1{[s4r](A)p.[s4r](A)p.[s4r](A)p.[s4r](C)p.r(A)p.r(U)p.r(G)p.r(C)p.r(A)p.r(G)p.r(A)p.r(A)p.r(A)p.r(A)p.r(U)p.[s4r](G)p.[s4r](C)p.[s4r](U)p.[s4r](G)p.r(T)p.r(T)}|RNA2{[s4r](C)p.[s4r](A)p.r(G)p.r(C)p.r(A)p.r(U)p.r(U)p.r(U)p.r(U)p.r(C)p.r(U)p.r(G)p.r(C)p.r(A)p.r(U)p.r(G)p.r(U)p.[s4r](U)p.[s4r](U)p.r(T)p.r(T)}$$$RNA1{StrandType:ss}|RNA2{StrandType:as}$	66.3%
RNA1{r(A)p.r(G)p.r(A)p.r(A)p.r(G)p.r(G)p.r(A)p.r(C)p.m(U)p.r(A)p.r(C)p.m(U)p.r(A)p.r(A)p.r(C)p.r(C)p.r(U)p.r(C)p.r(C)p.r(T)p.r(T)}|RNA2{r(G)p.r(G)p.r(A)p.r(G)p.r(G)p.r(U)p.r(U)p.r(A)p.r(G)p.m(U)p.r(A)p.r(G)p.r(U)p.r(C)p.r(C)p.r(U)p.r(U)p.r(C)p.r(U)p.r(T)p.r(T)}$$$RNA1{StrandType:ss}|RNA2{StrandType:as}$	81%
RNA1{r(G)p.[hna](A)p.r(C)p.r(G)p.r(U)p.r(A)p.r(A)p.[hna](A)p.r(C)p.r(G)p.r(G)p.r(C)p.r(C)p.[hna](A)p.r(C)p.r(A)p.[hna](A)p.r(G)p.r(U)p.r(U)p.r(C)}|RNA2{[fl2r](A)p.m(C)p.[fl2r](U)p.m(U)p.[fl2r](G)p.m(U)p.[fl2r](G)p.m(G)p.[fl2r](C)p.m(C)p.[fl2r](G)p.m(U)p.[fl2r](U)p.m(U)p.[fl2r](A)p.m(C)p.[fl2r](G)p.m(U)p.[fl2r](C)p.m(G)p.[fl2r](C)}$$$RNA1{StrandType:ss}|RNA2{StrandType:as}$	7.8%
RNA1{r(G)p.r(A)p.r(C)p.r(G)p.[hna](U)p.r(A)p.r(A)p.[hna](A)p.r(C)p.r(G)p.[hna](G)p.r(C)p.r(C)p.[hna](A)p.r(C)p.r(A)p.r(A)p.r(G)p.r(U)p.r(U)p.d(T)}|RNA2{r(A)p.r(C)p.r(U)p.r(U)p.r(G)p.r(U)p.r(G)p.r(G)p.r(C)p.r(C)p.r(G)p.r(U)p.r(U)p.r(U)p.r(A)p.r(C)p.r(G)p.r(U)p.[lna](C)p.[lna](G)p.r(C)}$$$RNA1{StrandType:ss}|RNA2{StrandType:as}$	77.3%
RNA1{r(C)p.m(U)p.r(A)p.r(C)p.r(C)p.r(U)p.r(U)p.r(C)p.r(U)p.r(C)p.r(C)p.r(U)p.r(C)p.r(U)p.r(U)p.r(C)p.r(U)p.r(C)p.r(C)p.r(T)p.r(T)}|RNA2{r(G)p.r(G)p.r(A)p.r(G)p.r(A)p.r(A)p.r(G)p.r(A)p.r(G)p.r(G)p.r(A)p.r(G)p.r(A)p.r(A)p.r(G)p.r(G)p.m(U)p.r(A)p.r(G)p.r(T)p.r(T)}$$$RNA1{StrandType:ss}|RNA2{StrandType:as}$	69%
RNA1{r(G)p.r(A)p.r(A)p.r(G)p.r(A)p.r(G)p.r(C)p.r(C)p.r(U)p.r(A)p.m(C)p.r(A)p.m(C)p.r(A)p.r(A)p.r(C)p.r(C)p.r(C)p.r(U)p.r(T)p.r(T)}|RNA2{r(A)p.r(G)p.r(G)p.r(G)p.r(U)p.m(U)p.r(G)p.r(U)p.r(G)p.m(U)p.r(A)p.r(G)p.r(G)p.r(C)p.r(U)p.r(C)p.r(U)p.r(U)p.r(C)p.r(T)p.r(T)}$$$RNA1{StrandType:ss}|RNA2{StrandType:as}$	74%
RNA1{m(G)p.r(G)p.m(A)p.r(A)p.m(G)p.r(U)p.m(A)p.r(A)p.m(G)p.r(G)p.m(A)p.r(C)p.m(C)p.r(A)p.m(G)p.r(A)p.m(G)p.r(A)p.m(C)p.r(T)p.r(T)}|RNA2{m(G)p.r(U)p.r(C)p.r(U)p.r(C)p.r(U)p.m(G)p.m(G)p.r(U)p.r(C)p.r(C)p.r(U)p.r(U)p.r(A)p.r(C)p.r(U)p.r(U)p.r(C)p.r(C)p.r(T)p.r(T)}$$$RNA1{StrandType:ss}|RNA2{StrandType:as}$	23%
RNA1{r(A)p.r(U)p.r(C)p.r(C)p.m(U)p.r(G)p.m(C)p.r(A)p.r(G)p.r(A)p.r(A)p.r(G)p.r(A)p.r(A)p.r(G)p.r(C)p.r(C)p.r(U)p.r(C)p.r(T)p.r(T)}|RNA2{r(G)p.r(A)p.r(G)p.r(G)p.r(C)p.r(U)p.r(U)p.r(C)p.r(U)p.r(U)p.r(C)p.r(U)p.r(G)p.r(C)p.r(A)p.r(G)p.r(G)p.r(A)p.r(U)p.r(T)p.r(T)}$$$RNA1{StrandType:ss}|RNA2{StrandType:as}$	74%
